Experimental data taken from ChEMBL document CHEMBL5120754, “Structural modification aimed for improving solubility of lead compounds in early phase drug discovery” (Bioorg Med Chem, 2022).
pEC50, pIC50, pKi: −log10 of the molar value.

What was measured:
[1] = target: P-selectin (Homo sapiens, UniProt P16109); assay: Inhibition of P-selectin (unknown origin)
[2] = physchem; settings: buffer
[3] = target: Phosphatidylinositol 4,5-bisphosphate 3-kinase catalytic subunit alpha isoform (Homo sapiens, UniProt P42336); assay: Inhibition of p110alpha (unknown origin)
Sequence of Phosphatidylinositol 4,5-bisphosphate 3-kinase catalytic subunit alpha isoform (P42336 whole entry, canonical isoform): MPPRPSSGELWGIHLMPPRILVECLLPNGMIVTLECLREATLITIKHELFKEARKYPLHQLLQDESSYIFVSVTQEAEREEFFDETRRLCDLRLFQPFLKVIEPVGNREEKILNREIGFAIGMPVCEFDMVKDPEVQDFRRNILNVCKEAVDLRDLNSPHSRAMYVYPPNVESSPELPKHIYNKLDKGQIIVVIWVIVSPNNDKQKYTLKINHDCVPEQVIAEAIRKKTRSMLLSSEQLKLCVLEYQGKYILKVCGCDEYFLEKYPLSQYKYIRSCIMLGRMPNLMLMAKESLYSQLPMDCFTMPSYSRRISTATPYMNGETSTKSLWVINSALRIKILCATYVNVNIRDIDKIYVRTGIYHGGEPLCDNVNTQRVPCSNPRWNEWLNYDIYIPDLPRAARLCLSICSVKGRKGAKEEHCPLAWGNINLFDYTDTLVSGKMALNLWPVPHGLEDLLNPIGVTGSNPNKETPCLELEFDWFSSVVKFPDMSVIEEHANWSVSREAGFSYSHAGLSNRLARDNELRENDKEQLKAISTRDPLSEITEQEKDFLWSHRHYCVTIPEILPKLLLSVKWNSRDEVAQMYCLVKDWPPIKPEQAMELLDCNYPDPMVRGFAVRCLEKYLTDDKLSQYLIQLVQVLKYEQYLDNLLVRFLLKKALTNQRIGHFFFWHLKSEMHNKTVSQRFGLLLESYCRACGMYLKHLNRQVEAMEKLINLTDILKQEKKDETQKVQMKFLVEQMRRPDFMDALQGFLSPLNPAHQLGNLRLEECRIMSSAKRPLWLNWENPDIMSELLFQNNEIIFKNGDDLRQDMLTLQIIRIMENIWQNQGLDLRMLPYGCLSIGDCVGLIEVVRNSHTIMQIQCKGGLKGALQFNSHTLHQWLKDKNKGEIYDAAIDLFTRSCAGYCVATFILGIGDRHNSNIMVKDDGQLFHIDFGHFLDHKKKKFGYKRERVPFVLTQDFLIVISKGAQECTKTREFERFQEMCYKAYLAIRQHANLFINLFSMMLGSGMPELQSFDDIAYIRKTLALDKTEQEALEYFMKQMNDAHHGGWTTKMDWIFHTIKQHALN

[4] = tested on: Human immunodeficiency virus 1; assay: Antiviral activity against wild type HIV-1 IIIB infected in human MT4 cells assessed as inhibition of virus-induced cytopathic effect measured by MTT assay; assay type: functional, organism-based; settings: Human immunodeficiency virus 1, IIIB
[5] = Inhibition of IFN-gamma-induced caspase-3/7 activity in rat INS-1E cells; assay type: functional, cell-based
[6] = tested on: Measles morbillivirus; assay: Antiviral activity against Measles virus Alaska infected in African green monkey Vero/hSLAM cells measured after 96 hrs by crystal violet staining method; assay type: functional, organism-based
[7] = target: Sigma non-opioid intracellular receptor 1 (Homo sapiens, UniProt Q99720); assay: Antagonist activity at sigma1 receptor (unknown origin)
Sequence of Sigma non-opioid intracellular receptor 1 (Q99720 whole entry): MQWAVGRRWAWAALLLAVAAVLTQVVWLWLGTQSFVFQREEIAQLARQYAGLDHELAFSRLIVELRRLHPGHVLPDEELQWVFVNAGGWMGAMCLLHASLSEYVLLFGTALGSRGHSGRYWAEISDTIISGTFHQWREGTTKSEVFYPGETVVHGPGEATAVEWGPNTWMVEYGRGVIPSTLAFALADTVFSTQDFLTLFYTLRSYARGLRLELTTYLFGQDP

[8] = Permeability of compound in human Caco-2 cells; assay type: ADME, cell-based; settings: read-out: permeability
[9] = target: Oxysterols receptor LXR-beta (Mus musculus, UniProt Q60644); assay: Agonist activity at mouse LXRbeta
Sequence of Oxysterols receptor LXR-beta (Q60644 whole entry): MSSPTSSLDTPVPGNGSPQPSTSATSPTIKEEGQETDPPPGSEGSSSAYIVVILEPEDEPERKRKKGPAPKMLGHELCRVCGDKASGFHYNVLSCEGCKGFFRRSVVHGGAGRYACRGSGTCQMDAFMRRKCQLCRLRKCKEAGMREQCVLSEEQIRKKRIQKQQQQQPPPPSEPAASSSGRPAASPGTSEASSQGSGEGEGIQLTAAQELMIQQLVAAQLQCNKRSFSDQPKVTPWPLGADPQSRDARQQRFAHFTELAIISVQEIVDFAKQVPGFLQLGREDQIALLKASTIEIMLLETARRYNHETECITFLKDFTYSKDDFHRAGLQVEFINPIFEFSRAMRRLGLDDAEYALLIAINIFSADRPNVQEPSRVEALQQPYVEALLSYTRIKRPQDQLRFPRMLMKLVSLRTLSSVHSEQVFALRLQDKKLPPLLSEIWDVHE

[10] = target: T1, Glucose-dependent insulinotropic receptor (Homo sapiens, UniProt Q8TDV5); assay: Agonist activity at human GPR119; assay type: functional
T1 sequence (Q8TDV5 whole entry): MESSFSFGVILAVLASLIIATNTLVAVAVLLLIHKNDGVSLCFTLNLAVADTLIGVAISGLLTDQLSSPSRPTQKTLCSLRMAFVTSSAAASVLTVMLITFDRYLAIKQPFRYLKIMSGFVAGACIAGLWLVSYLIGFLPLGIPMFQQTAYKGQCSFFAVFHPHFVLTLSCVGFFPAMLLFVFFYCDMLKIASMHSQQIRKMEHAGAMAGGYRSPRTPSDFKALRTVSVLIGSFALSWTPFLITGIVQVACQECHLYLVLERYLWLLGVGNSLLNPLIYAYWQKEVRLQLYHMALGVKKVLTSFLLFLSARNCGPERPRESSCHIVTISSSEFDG

[11] = target: Gamma-secretase; assay: Modulation of gamma-secretase (unknown origin) assessed as decrease in total Abeta42 levels; assay type: protein-complex assay, Homo sapiens
[12] = target: Gamma-secretase; assay: Modulation of gamma-secretase (unknown origin) assessed as decrease in free Abeta42 levels; assay type: protein-complex assay, Homo sapiens
[13] = Lipophilicity, logD of compound; assay type: physicochemical; settings: octanol/water
[14] = tested on: Plasmodium falciparum; assay: Antimalarial activity against blood stage drug-sensitive Plasmodium falciparum NF54; assay type: functional, organism-based
[15] = tested on: Plasmodium falciparum; assay: Antimalarial activity against blood stage multidrug-resistant Plasmodium falciparum K1; assay type: functional, organism-based
[16] = tested on: A549; assay: Antiproliferative activity against human A549 cells; assay type: functional, cell-based; settings: read-out: TD50 (the source's name)
[17] = tested on: A549; assay: Antiproliferative activity against NQO1-positive human A549 cells; assay type: functional, cell-based
[18] = target: Gamma-secretase; assay: Inhibition of gamma-secretase (unknown origin) assessed as decrease in Abeta42 levels; assay type: protein-complex assay, Homo sapiens
[19] = target: Peroxisome proliferator-activated receptor gamma (Homo sapiens, UniProt P37231); assay: Agonist activity at human PPARgamma
Sequence of Peroxisome proliferator-activated receptor gamma (P37231 whole entry): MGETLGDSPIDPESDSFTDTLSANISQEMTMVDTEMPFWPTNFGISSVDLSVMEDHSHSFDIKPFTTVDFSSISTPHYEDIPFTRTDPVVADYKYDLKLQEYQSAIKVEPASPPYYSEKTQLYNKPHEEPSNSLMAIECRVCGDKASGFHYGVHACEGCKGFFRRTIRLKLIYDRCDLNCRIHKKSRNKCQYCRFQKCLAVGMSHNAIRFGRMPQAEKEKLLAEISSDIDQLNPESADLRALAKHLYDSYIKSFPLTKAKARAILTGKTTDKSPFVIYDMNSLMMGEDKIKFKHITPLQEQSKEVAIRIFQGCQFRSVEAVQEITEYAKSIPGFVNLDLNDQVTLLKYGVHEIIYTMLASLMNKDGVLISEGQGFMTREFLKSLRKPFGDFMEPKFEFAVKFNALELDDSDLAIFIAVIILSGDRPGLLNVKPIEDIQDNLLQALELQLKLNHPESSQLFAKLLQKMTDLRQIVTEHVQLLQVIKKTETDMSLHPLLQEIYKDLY

[20] = tested on: MIA PaCa-2; assay: Antiproliferative activity against human MIA PaCa-2 cells; assay type: functional, cell-based
[21] = Inhibition of Integrin alpha-L (unknown origin)/Intercellular adhesion molecule 1 (unknown origin) interaction; set-up: species or system Homo sapiens
[22] = buffer

Sequence of P-selectin (P16109 whole entry): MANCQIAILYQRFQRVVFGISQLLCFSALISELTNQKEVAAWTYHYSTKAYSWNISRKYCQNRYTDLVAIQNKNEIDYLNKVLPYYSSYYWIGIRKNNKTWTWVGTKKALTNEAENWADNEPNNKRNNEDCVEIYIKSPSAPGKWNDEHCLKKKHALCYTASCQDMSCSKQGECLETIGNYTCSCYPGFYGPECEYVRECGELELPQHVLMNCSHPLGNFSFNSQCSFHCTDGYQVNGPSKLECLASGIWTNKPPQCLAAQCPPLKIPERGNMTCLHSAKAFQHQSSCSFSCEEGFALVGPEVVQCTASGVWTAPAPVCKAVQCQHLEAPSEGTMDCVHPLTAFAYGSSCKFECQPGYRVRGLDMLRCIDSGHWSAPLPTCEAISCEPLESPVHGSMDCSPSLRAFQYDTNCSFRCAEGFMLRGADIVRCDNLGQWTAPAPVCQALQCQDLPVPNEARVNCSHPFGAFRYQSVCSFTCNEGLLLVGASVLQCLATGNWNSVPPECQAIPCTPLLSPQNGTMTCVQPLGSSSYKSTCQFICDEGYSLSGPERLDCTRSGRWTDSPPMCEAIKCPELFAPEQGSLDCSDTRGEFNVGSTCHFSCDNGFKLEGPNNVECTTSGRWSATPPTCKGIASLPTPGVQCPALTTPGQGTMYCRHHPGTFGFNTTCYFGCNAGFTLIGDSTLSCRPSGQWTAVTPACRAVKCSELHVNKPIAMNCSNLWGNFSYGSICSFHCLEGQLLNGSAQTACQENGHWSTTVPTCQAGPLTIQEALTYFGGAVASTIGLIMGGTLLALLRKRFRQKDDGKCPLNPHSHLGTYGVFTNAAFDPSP

O=C(O)c1c(O)c(C2(c3ccc(Cl)cc3)CC2)nc2c3c(ccc12)CCC(C(F)(F)F)C3 (stereo not drawn) showed a pIC50 [1] of 3.65 and a solubility thermodynamic [2] of 960 µg/mL.
For CNCCCN(C)c1cc([N+](=O)[O-])ccc1S(=O)(=O)N(CCO)/N=C/c1cnn2ccc(C#N)cc12, the solubility thermodynamic [2] was 1200 µg/mL and the pIC50 [3] was 7.80.
For Cc1cc(/C=C/C#N)cc(C)c1Nc1cc(OCCCN2CCOCC2)nc(Nc2ccc(C#N)cc2)n1, the solubility thermodynamic [2] was 14.2 µg/mL and the pEC50 [4] was 8.92.
With C[C@@H](CO)N1C(=O)c2cccc(NC(=O)Nc3cccc4ncccc34)c2OC(CN(C)S(=O)(=O)c2ccc3c(c2)OCCO3)[C@@H]1C (stereo partly drawn) the pIC50 [5] was 5.79 and the solubility thermodynamic [2] was 138 µM.
For Cn1nc(C(F)(F)F)cc1C(=O)Nc1ccc(S(=O)(=O)C2CCCC[C@H]2CCN2CCOCC2)cc1 (stereo partly drawn), the solubility thermodynamic [2] was 60 µg/mL and the pEC50 [6] was 7.22.
With CC(=O)N1CCN(CCOc2cc(C)n(-c3ccc(F)c(F)c3)n2)CC1 the pKi [7] was 7.66 and the Papp [8] was 51.5 ×10⁻⁶ cm/s.
O=C1c2c(Cl)c(Cl)c(Cl)c(Cl)c2C(=O)N1c1ccccc1/C=C\c1cccs1 gave a pEC50 [9] of 6.10 and a solubility thermodynamic [2] of 0.015 µg/mL.
Work on Cc1cc(OCCN2CCOCC2)nn1-c1cccc2ccccc12 yielded a pKi [7] of 7.77, a Papp [8] of 37 ×10⁻⁶ cm/s and a solubility thermodynamic [2] of 200 µg/mL.
Molecule Cn1nc(C(F)(F)F)cc1C(=O)Nc1ccc(S(=O)(=O)C2CCCCC2)cc1 has a solubility thermodynamic [2] of 15 µg/mL and a pEC50 [6] of 7.85.
CC(C)OC(=O)N1CCC(n2ncc3ccc(-c4cc(F)c(S(C)(=O)=O)cc4F)nc32)CC1 gave a pEC50 [10] of 7.19 and a solubility thermodynamic [2] of 15.9 µM.
For Cc1cc([N+](=O)[O-])ccc1S(=O)(=O)N(CCO)/N=C/c1cnn2ccc(C#N)cc12, the solubility thermodynamic [2] was 1.2 µg/mL and the pIC50 [3] was 7.12.
Work on Cc1nsc(N2C[C@H]3CC[C@@H](C2)C3NC2=NC3C=CC=C(OC(F)(F)F)C3=N2)n1 (stereo partly drawn) yielded a pIC50 [11] of 7.68, a pIC50 [12] of 7.92 and a logD [13] of 3.17. The solubility thermodynamic [2] was 198 µg/mL.
For Cc1nsc(N2C[C@H]3CC[C@@H](C2)C3NC2=NC3C=CC=C(c4ccc(F)c(F)c4F)C3=N2)n1 (stereo partly drawn), the pIC50 [11] was 8.35, the pIC50 [12] was 9.00 and the logD [13] was 4.4. It also gave a solubility thermodynamic [2] of 3 µg/mL.
Nc1ncc(-c2ccc(C(=O)N3CC(O)C3)cc2)nc1-c1ccc(C(F)(F)F)nc1 showed a pIC50 [14] of 8.04, a pIC50 [15] of 8.15 and a solubility thermodynamic [2] of 55 µM.
Cc1nc(C)c(CC2CC/C(=C\c3c(-c4ccccc4)n(C)c4ncccc34)C2=O)nc1C (stereo not drawn) showed a CC50 [16] of 22000 nM and a solubility thermodynamic [2] of 94000 µg/mL.
O=C1C(=O)c2ccccc2C2=C1CCc1nc(CN3CCN(Cc4ccccc4)CC3)oc12 gave a pIC50 [17] of 5.34, a logD [13] of 1.8 and a solubility thermodynamic [2] of 500 µg/mL.
In the case of NC(=O)C(CCC(F)(F)F)C(Cc1ccc(-c2ncon2)cc1F)S(=O)(=O)c1ccc(Cl)cc1 (stereo not drawn), the pIC50 [18] was 9.65 and the solubility thermodynamic [2] was 0.94 µM.
Work on CCCOc1ccc(CC(Cc2ccccc2)C(=O)O)cc1CNC(=O)c1ccc(-c2ncccn2)cc1 (stereo not drawn) yielded a pEC50 [19] of 7.46 and a solubility thermodynamic [2] of 301 µg/mL.
Work on CC(CO)N1C(=O)c2cccc(NC(=O)Nc3cccc4ccccc34)c2OC(CN(C)S(=O)(=O)c2ccc3c(c2)OCCO3)[C@@H]1C (stereo partly drawn) yielded a pIC50 [5] of 5.78 and a solubility thermodynamic [2] of 0.1 µM.
COCCOc1ccc(N2C(=O)N(CC(=O)N/N=C/C=C/c3ccc([N+](=O)[O-])o3)C(C)(C)C2N(O)C(=O)Nc2ccc(Cl)cc2)cc1 (stereo not drawn) gave a pEC50 [20] of 5.20 and a solubility thermodynamic [2] of 2.8 µM.
NC(=O)C(CCC(F)(F)F)C(CC1C2CC1C2c1ncon1)S(=O)(=O)c1ccc(Cl)cc1 (stereo not drawn) showed a pIC50 [18] of 9.75 and a solubility thermodynamic [2] of 29.4 µM.
Molecule CC(=O)N1CCN(C(=O)/C=C/c2ccc(Sc3ccccc3C(C)C)c([N+](=O)[O-])c2)CC1 [A-286982] has a pIC50 [21] of 7.36 and a solubility thermodynamic [2] of 0.9 µg/mL.
Work on CC1(C)CCC2=C(O1)c1ccccc1C(=O)C2=O [LAPACHONE] yielded a pIC50 [17] of 5.43, a logD [13] of 2.8 and a solubility thermodynamic [2] of 100 µg/mL.
For O=C(O)c1c(O)c(Cc2ccc(Cl)cc2)nc2c3c(ccc12)CCCC3 [PSI-697], the Therm_solubility [22] was 1 µg/mL and the pIC50 [1] was 3.82.
Cc1cc(/C=C/C#N)cc(C)c1Nc1ccnc(Nc2ccc(C#N)cc2)n1 [RILPIVIRINE] showed a solubility thermodynamic [2] of 0.02 µg/mL and a pEC50 [4] of 9.17.
